In PubChem BioAssay AID1918996 (Molecular Pharmacology Branch, DTP, NCI, 2023):

System: 349418-098-R-PDC complex spheroid growth
Experiment: Anticancer human tumor 349418-098-R-PDC patient-derived lung adenocarcinoma cell line growth inhibition [AhR]
Settings: for IC50: curve of first compound; for viability, T/C: stronger effect = lower value
How it was run: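 Agents were dosed in half-log steps down from roughly clinical Cmax, or from 10 microM where Cmax was unknown, alone and with AhR antagonists. Read-out: percent test/control growth of tumor spheroids containing HUVEC and MSC stromal cells.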
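Note: spheroids exposed to agents for seven days before luminescence viability read.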
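Throughout, for viability, T/C: spheroids also contain HUVEC endothelial cells and human MSC stroma.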

## COc1cccc2c1C(=O)c1c(O)c3c(c(O)c1C2=O)CC(O)(C(=O)CO)CC3OC1CC(N)C(O)C(C)O1 (stereo not given) + Cc1cncc(-c2nc(NCCc3c[nH]c4ccccc34)c3ncn(C(C)C)c3n2)c1
Second compound 0.1 µM
  IC50: < 31.6 nM
Second compound 0.316 µM
  IC50: < 31.6 nM
Second compound 1 µM
  IC50: < 31.6 nM
Second compound 3.16 µM
  IC50: < 31.6 nM
Second compound 10 µM
  IC50: < 31.6 nM
Second compound 0.1 µM, first compound 0.0316 µM
  viability, T/C: 12.1%
Second compound 0.1 µM, first compound 0.1 µM
  viability, T/C: 6.61%
Second compound 0.1 µM, first compound 0.316 µM
  viability, T/C: 1.44%
Second compound 0.1 µM, first compound 1 µM
  viability, T/C: 0.29%
Second compound 0.1 µM, first compound 3.16 µM
  viability, T/C: 2.68%
Second compound 0.1 µM, first compound 10 µM
  viability, T/C: 3.48%
Second compound 0.316 µM, first compound 0.0316 µM
  viability, T/C: 11.5%
Second compound 0.316 µM, first compound 0.1 µM
  viability, T/C: 6.41%
Second compound 0.316 µM, first compound 0.316 µM
  viability, T/C: 1.16%
Second compound 0.316 µM, first compound 1 µM
  viability, T/C: 0.42%
Second compound 0.316 µM, first compound 3.16 µM
  viability, T/C: 2.47%
Second compound 0.316 µM, first compound 10 µM
  viability, T/C: 4%
Second compound 1 µM, first compound 0.0316 µM
  viability, T/C: 10.5%
Second compound 1 µM, first compound 0.1 µM
  viability, T/C: 4.41%
Second compound 1 µM, first compound 0.316 µM
  viability, T/C: 1.26%
Second compound 1 µM, first compound 1 µM
  viability, T/C: 0.31%
Second compound 1 µM, first compound 3.16 µM
  viability, T/C: 2.61%
Second compound 1 µM, first compound 10 µM
  viability, T/C: 3.54%
Second compound 3.16 µM, first compound 0.0316 µM
  viability, T/C: 4.44%
Second compound 3.16 µM, first compound 0.1 µM
  viability, T/C: 3.03%
Second compound 3.16 µM, first compound 0.316 µM
  viability, T/C: 0.5%
Second compound 3.16 µM, first compound 1 µM
  viability, T/C: 0.32%
Second compound 3.16 µM, first compound 3.16 µM
  viability, T/C: 2.14%
Second compound 3.16 µM, first compound 10 µM
  viability, T/C: 3.34%
Second compound 10 µM, first compound 0.0316 µM
  viability, T/C: 0.79%
Second compound 10 µM, first compound 0.1 µM
  viability, T/C: 0.69%
Second compound 10 µM, first compound 0.316 µM
  viability, T/C: 0.23%
Second compound 10 µM, first compound 1 µM
  viability, T/C: 0.5%
Second compound 10 µM, first compound 3.16 µM
  viability, T/C: 1.35%
Second compound 10 µM, first compound 10 µM
  viability, T/C: 1.99%
